In ChEMBL document CHEMBL3351633, “Anithiactins A-C, modified 2-phenylthiazoles from a mudflat-derived Streptomyces sp” (J Nat Prod, 2014):
Active and inactive are the calls of the source. No cut-off for these calls is given here.

Columns and labels:
[1] = target: Acetylcholinesterase (Homo sapiens, UniProt P22303); experiment: Inhibition of AChE (unknown origin) assessed as inhibition of acetylcholine hydrolysis preincubated for 15 mins by Ellman method
[2] = test system: A498; experiment: Cytotoxicity against human A498 cells up to 200 uM by modified MTT assay; type: functional, cell-based
[3] = test system: ACHN; experiment: Cytotoxicity against human ACHN cells up to 200 uM by modified MTT assay; type: functional, cell-based

Acetylcholinesterase, sequence (P22303 whole entry): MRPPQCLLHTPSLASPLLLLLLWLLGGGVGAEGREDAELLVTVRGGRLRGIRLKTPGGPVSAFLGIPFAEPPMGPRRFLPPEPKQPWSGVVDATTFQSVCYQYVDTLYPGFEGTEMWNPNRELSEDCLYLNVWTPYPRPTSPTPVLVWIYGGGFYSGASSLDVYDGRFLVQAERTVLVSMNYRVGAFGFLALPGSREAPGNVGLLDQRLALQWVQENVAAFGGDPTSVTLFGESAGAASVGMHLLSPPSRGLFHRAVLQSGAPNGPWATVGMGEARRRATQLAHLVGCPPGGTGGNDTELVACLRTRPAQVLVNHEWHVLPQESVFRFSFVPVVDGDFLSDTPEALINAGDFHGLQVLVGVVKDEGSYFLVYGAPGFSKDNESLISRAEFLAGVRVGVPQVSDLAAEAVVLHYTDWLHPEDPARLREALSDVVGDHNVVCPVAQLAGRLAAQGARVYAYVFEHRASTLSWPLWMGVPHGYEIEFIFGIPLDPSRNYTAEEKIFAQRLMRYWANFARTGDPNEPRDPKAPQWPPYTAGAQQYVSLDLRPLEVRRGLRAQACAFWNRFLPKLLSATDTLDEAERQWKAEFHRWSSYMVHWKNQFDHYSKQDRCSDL

With `CNc1ccccc1-c1nc(C(=O)O)cs1` the IC50 [1] was 68 µM, the Activity [2] was “inactive” and the Activity [3] was “inactive”.

`CNc1ccccc1-c1nc(C(=O)OC)cs1` was tested, and the IC50 [1] was 63 µM, the Activity [2] was “inactive” and the Activity [3] was “inactive”.

In the case of `CNc1ccccc1-c1nc(C(N)=O)cs1`, the IC50 [1] is reported as 53 µM, the Activity [2] is reported as “inactive” and the Activity [3] is reported as “inactive”.
